{"source": "paper PMC9367672", "about": "“In vitro differences in toddalolactone metabolism in various species and its effect on cytochrome P450 expression” (Pharmaceutical Biology, 2022)", "key": {"CYP1A1 [1]": {"target": "T1, CYP1A1 (Homo sapiens, UniProt P04798)", "T1 sequence (P04798 1-512)": "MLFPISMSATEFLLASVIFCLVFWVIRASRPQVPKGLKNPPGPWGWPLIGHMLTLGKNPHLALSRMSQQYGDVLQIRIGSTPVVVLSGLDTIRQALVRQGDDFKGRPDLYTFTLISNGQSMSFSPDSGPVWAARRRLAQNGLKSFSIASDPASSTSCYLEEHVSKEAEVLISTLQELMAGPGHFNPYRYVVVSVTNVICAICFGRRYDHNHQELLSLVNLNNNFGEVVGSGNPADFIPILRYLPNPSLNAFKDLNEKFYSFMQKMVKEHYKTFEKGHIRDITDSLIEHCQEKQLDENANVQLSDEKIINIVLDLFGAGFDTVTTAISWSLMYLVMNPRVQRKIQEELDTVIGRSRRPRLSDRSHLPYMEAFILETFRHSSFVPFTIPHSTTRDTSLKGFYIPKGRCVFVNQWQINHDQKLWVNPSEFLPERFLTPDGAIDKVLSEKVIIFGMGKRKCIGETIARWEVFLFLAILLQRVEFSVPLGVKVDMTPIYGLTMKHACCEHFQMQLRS", "assay": "Reaction phenotyping with recombinant human CYP1A1", "format": "in vitro ADME", "parameters": "purchased Corning Life Sciences (Corning, MA)", "details": "CYP1A1 15 nM, 37 °C, 60 min; P4 main metabolite", "method": "(§1) The CYP reaction system (200 μL) consisted of 0.1 M potassium phosphate buffer (pH 7.4), an NADPH-generating system (1 mM NADPH, 10 mM G-6-P, 1 unit/mL G-6-PD, 4 mM MgCl2), and liver microsomes or recombinant human microsomes (supersomes). Each of the in vitro enzymatic assays using liver microsomes was linear with respect to incubation time and amount of protein. After a pre-incubation at 37 °C for 3 min, the reactions were initiated by adding NADP^+. After incubating for 60 min, the reactions were quenched by adding 200 μL of ice-cold acetonitrile. Samples were centrifuged at 18,000 g for 15 min at 4 °C and 10 μL of supernatant was analyzed using an HPLC system. NADPH or CYP enzyme sources were not used in the control group to ensure that the metabolic reactions were CYP- and NADPH-dependent. All incubation assays were completed in triplicate. The data are presented as mean ± standard deviation (SD).\nThirteen cDNA-expressed human CYP isoforms (CYP1A1, CYP1A2, CYP2A6, CYP2B6, CYP2C8, CYP3A4, CYP2C19, CYP3A5, CYP1B1, CYP2C9, CYP2D6, CYP2E1 and CYP4F2) were used to identify the isoform(s) involved in the biotransformation of toddalolactone. Toddalolactone (10 μM) was incubated with each recombinant CYP (15 nM) for 60 min at 37 °C and metabolites were identified by HPLC."}, "MIMs": {"tested_on": "MIMs", "assay": "Enzyme kinetics of toddalolactone metabolism in mouse liver microsomes (oxidative metabolism)", "format": "in vitro ADME", "details": "MOMs (mouse liver microsomes), P450-catalyzed oxidation, P2 formation", "method": "as §1\n(§2) The enzyme kinetics of toddalolactone in oxidative metabolism and glucuronidation were determined by incubating liver microsomes (0.2 mg/mL) or CYPs (15 nM) with different concentrations of toddalolactone (1–200 μM). […] The in vitro intrinsic clearance (CLint) was calculated based on the Vmax/Km ratio. Metabolites were quantified using the standard curve for toddalolactone because of the absence of metabolite standards. […]\n(§3) The enzyme kinetics in oxidative metabolism and glucuronidation of toddalolactone were studied, and preliminary experiments were performed to ensure that metabolites were formed in the linear range of both reaction time and microsomal protein concentration. […] Based on the results of toddalolactone metabolism in different species, the kinetic parameter values in RLMs, DLMs, MLMs, HLMs, RAMs, MIMs, PLMs, CYP1A1 and CYP3A5 were calculated using P4, P4, P4, P4, P2, P2, P4, P4 and P4 data in oxidative metabolism, respectively. In the glucuronidation reaction, the kinetic parameter values in RLMs, MLMs, HLMs, RAMs and PLMs were calculated using P5, P6, P6, P6 and P5 data, respectively."}, "[2]": {"assay": "Enzyme kinetics of toddalolactone metabolism in mouse liver microsomes (oxidative metabolism)", "format": "in vitro ADME", "details": "pH 7.4; MOMs (mouse liver microsomes); P450-catalyzed oxidation; P2 formation; Vmax/Km", "method": "as §1, §2, §3"}, "CYP1A1 [3]": {"target": "T1, CYP1A1", "assay": "Enzyme kinetics of toddalolactone metabolism by recombinant CYP1A1", "details": "recombinant CYP1A1 (15 nM); P4 formation"}, "RAMs": {"tested_on": "RAMs", "assay": "Enzyme kinetics of toddalolactone metabolism in rabbit liver microsomes (oxidative metabolism and glucuronidation)", "format": "in vitro ADME", "details": "RAMs; for V max: toddalolactone 1–200 μM", "method": "as §1\n(§4) In the UGT reaction system, liver microsomes were incubated in 200 μL of the reaction system containing 4 mM UDPGA, 5 mM MgCl2, 20 µg/mL alamethicin, and 50 mM Tris-HCl buffer (pH 7.4). After pre-incubation at 37 °C for 3 min, UDPGA was added to the mixture to initiate the reactions. The mixtures were incubated at 37 °C for 60 min, followed by the addition of 200 μL of cold methanol to terminate the reactions. After centrifugation at 18,000 g for 15 min, 10 μL of the supernatant was analyzed by HPLC.\n(§5) The enzyme kinetics of toddalolactone in oxidative metabolism and glucuronidation were determined by incubating liver microsomes (0.2 mg/mL) or CYPs (15 nM) with different concentrations of toddalolactone (1–200 μM). The kinetic parameters including Km and Vmax were obtained by fitting the experimental data to the Michaelis–Menten equation (Equation (1)), biphasic kinetics equation (Equation (2)), or substrate inhibition equation (Equation (3)) (He et al. [2018]), and the results were graphically represented on Eadie–Hofstee plots. The in vitro intrinsic clearance (CLint) was calculated based on the Vmax/Km ratio. Metabolites were quantified using the standard curve for toddalolactone because of the absence of metabolite standards. All incubations were repeated in three independent experiments. Kinetic constants were expressed with mean ± SD: (1) V=Vmax×[S]/Km+[S] (2) V=Vmax1×[S]/Ks1+[S]+Vmax2×[S]/Ks2+[S] (3) V=Vmax×[S]/Ks+[S]+[S]^2/Ksi where v is the rate of reaction, Vmax is the estimated maximum velocity, [S] is the substrate concentration, and Km is the affinity constant of the substrate; Vmax1 and Vmax2 represent the estimated maximum velocity of the two metabolic phases; Ks1 and Ks2 represent the affinity constants for two metabolic phases; Ks and Ksi are the substrate affinity and inhibition constants, respectively.\n(§6) The enzyme kinetics in oxidative metabolism and glucuronidation of toddalolactone were studied, and preliminary experiments were performed to ensure that metabolites were formed in the linear range of both reaction time and microsomal protein concentration. The metabolite with the largest peak area was used to calculate the kinetic parameter values (Km, Vmax and CLint). Based on the results of toddalolactone metabolism in different species, the kinetic parameter values in RLMs, DLMs, MLMs, HLMs, RAMs, MIMs, PLMs, CYP1A1 and CYP3A5 were calculated using P4, P4, P4, P4, P2, P2, P4, P4 and P4 data in oxidative metabolism, respectively. In the glucuronidation reaction, the kinetic parameter values in RLMs, MLMs, HLMs, RAMs and PLMs were calculated using P5, P6, P6, P6 and P5 data, respectively."}, "[4]": {"assay": "Enzyme kinetics of toddalolactone metabolism in rabbit liver microsomes (oxidative metabolism and glucuronidation)", "format": "in vitro ADME", "details": "rabbit, liver microsomes, pH 7.4, RAMs, Vmax/Km", "method": "as §1, §4, §5, §6"}, "[5]": {"details": "P450-catalyzed oxidation, P2 formation"}, "[6]": {"details": "glucuronide metabolism, P6 formation"}}}
{"smiles": "COc1cc2oc(=O)ccc2c(OC)c1C[C@@H](O)C(C)(C)O", "note": "[toddalolactone]", "values": [{"measurement": "catalysis of toddalolactone metabolism by rhCYP isoform", "setting": "CYP1A1 [1]", "result": "predominantly catalyzed"}, {"measurement": "K m", "setting": "MIMs", "result": "146.32 ± 26.62", "unit": "µM"}, {"measurement": "V max", "setting": "MIMs; toddalolactone 1–200 μM", "result": "235.91 ± 22.75", "unit": "pmol/min/mg protein"}, {"measurement": "microsomal CLint", "setting": "[2]", "result": 1.61, "unit": "µL/min/mg"}, {"measurement": "K m", "setting": "CYP1A1 [3]", "result": "60.12 ± 6.67", "unit": "µM"}, {"measurement": "K m", "setting": "RAMs; [5]", "result": "76.46 ± 16.02", "unit": "µM"}, {"measurement": "V max", "setting": "RAMs; [5]", "result": "20.03 ± 1.72", "unit": "pmol/min/mg protein"}, {"measurement": "K m", "setting": "RAMs; [6]", "result": "91.46 ± 28.22", "unit": "µM"}, {"measurement": "V max", "setting": "RAMs; [6]", "result": "11.98 ± 2.19", "unit": "pmol/min/mg protein"}, {"measurement": "microsomal CLint", "setting": "[4]; [5]", "result": 0.26, "unit": "µL/min/mg"}, {"measurement": "microsomal CLint", "setting": "[4]; [6]", "result": 0.12, "unit": "µL/min/mg"}]}
